A short description of data set [1]: Dynamic moisture sorption (DMS) assessment. Format: physicochemical. The protocol: A dynamic moisture sorption (DMS) assessment (also known as a moisture sorption-desorption profile) was performed for a hand ground samples of Form I, Form II and Form III of crystalline biphenyl-2-ylcarbamic acid 1-[2-(4-{[(R)-2-(3-formylamino-4-hydroxyphenyl)-2-hydroxyethylamino]methyl}-2,5-dimethylphenylcarbamoyl)-ethyl]piperidin-4-yl ester using a VTI atmospheric microbalance, SGA-100 system (VTI Corp., Hialeah, Fla. 33016). A sample size of approximately 10 mg was used and the humidity was set at the ambient value at the start of the analysis. A typical DMS analysis consisted of three scans: ambient to 2% relative humidity (RH), 2% RH to 90% RH, 90% RH to 5% RH at a scan rate of 5% RH/step. The mass was measured every two minutes and the RH was changed to the next value (±5% RH) when the mass of the sample was stable to within 0.01% for 5 consecutive points. Representative DMS traces for Form I, Form II and Form III are shown in FIGS. 10, 11 and 12, respectively.

A short description of data set [2]: Differential scanning calorimetry, thermal stability. The conditions noted are these: DSC, FIG. 5. In kind it is physicochemical. The protocol: Differential scanning calorimetry (DSC) was performed using a TA Instruments Model Q-100 module with a Thermal Analyst controller. Data were collected and analyzed using TA Instruments Thermal Solutions software. A sample of about 1 mg was accurately weighed into an aluminum pan with lid. The sample was evaluated using a linear heating ramp of 5° C./min from ambient temperature to approximately 300° C. The DSC cell was purged with dry nitrogen during use. Representative DSC traces for samples of Form I, Form II and Form III of crystalline biphenyl-2-ylcarbamic acid 1-[2-(4-{[(R)-2-(3-formylamino-4-hydroxyphenyl)-2-hydroxyethylamino]methyl}-2,5-dimethylphenylcarbamoyl)ethyl]piperidin-4-yl ester are shown in FIGS. 4, 5 and 6, respectively.
In general terms: Differential scanning calorimetry records heat flow against a reference as temperature is scanned.

A further data set relates to bronchoconstriction. The experiment in a line: Einthoven assay, duration of bronchoprotection. Particulars: guinea pigs, 10 μg/mL.

A value given as a limit tells only on which side of the number the result lay.

Method for bronchoconstriction: The magnitude of bronchoprotection at different time-points after inhalation of the test compound was used to estimate the pharmacodynamic half-life (PD T1/2). PD T1/2 was determined using a non-linear regression fit using a one-phase exponential decay equation (GraphPad Prism, Version 4.00): Y=Span*exp(−K*X)+Plateau; Starts at Span+Plateau and decays to Plateau with a rate constant K. The PD T1/2=0.69/K. Plateau was constrained to 0.

On to `Cc1cc(NC(=O)CCN2CCC(OC(=O)Nc3ccccc3-c3ccccc3)CC2)c(C)cc1CNC[C@H](O)c1ccc(O)c(NC=O)c1` [Form II, Biphenyl-2-ylcarbamic acid 1-[2-(4-{[(R)-2-(3-Formylamino-4-hydroxyphenyl)-2-hydroxyethylamino]methyl}-2,5-dimethylphenylcarbamoyl)ethyl]piperidin-4-yl Ester], for which the hygroscopicity in data set [1] (DMS, 2% RH to 90% RH, reversible sorption/desorption profile) was less than 5%. The weight gain result in data set [1] (humidity range of 40% RH to 75% RH, DMS trace FIG. 11) is recorded as “about 0.3 weight %”; in data set [1] (humidity range of 40% relative humidity to 75% relative humidity), “less than 0.5%”. For the same compound, the deliquescence result in data set [1] (moisture sorption/desorption, exposure to atmospheric moisture) is “not deliquescent”. In addition, the thermal stability entry in data set [2] is given as “excellent thermal stability”.
Turning to `C[N+]1(C)[C@@H]2C[C@@H](OC(=O)C(O)(c3cccs3)c3cccs3)C[C@H]1[C@@H]1O[C@@H]12` [tiotropium], in the data set with bronchoconstriction, the “duration of significant bronchoprotection” value is recorded as “greater than 72 hours”.

The values above are taken from patent US7880010B2, “Crystalline forms of a dimethylphenyl compound” (Theravance, Inc., priority 2006, dated 2011).
